Measurements from patent US20230094545A1, “S1P RECEPTOR MODULATORS” (AKAAL PHARMA PTY LTD, priority 2020, published 2023).
Entries after “also recorded” stand apart in the source; their conditions may differ.

Key:
[1] = Systemic exposure in human subjects after topical application; settings: in vivo
Description: The medicaments according to the present disclosure may contain from about 0.05% to about 10% by weight, or from about 0.5% to about 10% by weight, preferably from about 1.0 to about 4.5% by weight or preferably from about 1.5 to about 4.5% by weight, of the S1P receptor modulator. […] The dose of the S1P receptor modulator used in the treatment of the aforementioned disorders will vary in the usual way with the seriousness of the disorders, the weight of the sufferer, and other similar factors. In preferred embodiments, the medicament is applied to 100 cm^2 of body surface area per 1 g of medicament, up to 1000 cm^2 of body surface area per 1 g of medicament. The medicament can be applied such that the standard daily therapeutic dosage of active compound is ≤3 g. The topical dose level and strength of dose formulation with the compound of formula (I) may be extended to higher levels without risk of bradycardia and lymphopenia. For example, dose levels of medicaments according to the methods of the present disclosure may include up to: • 1. 10 g daily dose of up to 30% ww strength formulation with 1 g up to 300 cm^2 surface area • 2. 10 g daily dose of up to 30% ww strength formulation with 1 g up to 1000 cm2 surface area • 3. 100 g daily dose of up to 3% ww strength formulation with 1 g up to 300 cm^2 surface area • 4. 100 g daily dose of up to 3% ww strength formulation with 1 g up to 1000 cm2 surface area • 5. 300 g daily dose of up to 1% ww strength formulation with 1 g up to 300 cm^2 surface area. • 6. 300 g daily dose of up to 1% ww strength formulation with 1 g up to 1000 cm^2 surface area
The body surface area of an adult is around 16,000 cm^2 to 18,000 cm^2 and the skin surface area varies from 10,000 cm^2 to 20,000 cm^2 (https://hypertextbook.com/facts/2001/IgorFridman.shtml, and references cited within). Human subjects received a topical application of 1 g of 3% by weight formulation per 150 cm^2 of body surface area (over the skin) twice daily for 21 days. The resulting systemic exposure was approximately 2.2 ng/ml.

[2] = test system: microglial (BV2 cells) and macrophages (Raw cells); assay: LPS-treated microglial and macrophage cells, cytokines by ELISA; type: cell-based; settings: 1-5 μg/mL, 4 hrs prior to LPS 500 ng/mL, p<0.05
Experimental: Treatment of a compound of formula (I) (1-5 μg/mL) to the cultured microglial (BV2 cells) and macrophages (Raw cells) was made 4 hrs prior to treatment with lipopolysaccharide (LPS) at 500 ng/mL. After 16-18 hr of drug treatment the cytokines (TNFα, IL1β and IL6) were measured in culture media by ELISA and expression levels of cyclooxygenase2 (Cox-2), inducible […] (iNOS) or beta actin were analysed in cell homogenates by western analysis.

EAE = assay: Animal model of multiple sclerosis (EAE induced with guinea pig MBP); type: in vivo, Lewis rats; settings: EAE rats, oral every day until day 26
Experimental: The oral treatment with a compound of formula (I) was conducted in an animal model of multiple sclerosis. EAE was induced in female Lewis rats with guinea pig MBP (25 μg/rat).

[3] = test system: LPS mediated systemic inflammation; assay: LPS-induced sepsis model; type: in vivo, Sprague-Dawley rats; settings: 3 mg/Kg oral 1 h after LPS and every 24 h
Experimental: Sepsis was induced in female Sprague-Dawley rats by LPS (5 mg/kg) administration and treated orally with compound of Formula I (3 mg/Kg) 1 h after and every 24 h thereafter to determine the effect of a compound of formula (I) in this animal model of sepsis (LPS mediated systemic inflammation). Animals were sacrificed at 24 and 72h post LPS treatment.

[4] = test system: paclitaxel induced neuropathic pain; assay: Paclitaxel induced neuropathic pain; type: in vivo, Sprague Dawley Rats
Experimental: Forty-eight male Sprague Dawley Rats were assigned to different treatment and control groups containing 8 animals per group. All animals, except the Naive control were injected with Paclitaxel (2 mg/kg) intraperitoneally on four alternate days (D0, D2, D4 and D6). For prophylactic intervention, the compound of Formula I was dosed orally at dose of 0.3, 1 and 3 mg/kg/day when the treatment was initiated along with paclitaxel treatment and the dosage was continued until day 15 post first paclitaxel injection. For therapeutic intervention, the compound of Formula I was dosed orally at dose of 3 mg/kg/day when the treatment was initiated after establishment of neuropathic pain i.e. on day 16 post first paclitaxel injection and was continued for the next 7 days.
For behavioural testing each rat was allowed to acclimatize individually to a transparent enclosure on elevated wire mesh for at least 15 min. Behavioural testing was performed using an Electronic von Frey Aesthesiometer (IITC Life Science) to evaluate paw withdrawal threshold to mechanical stimulus.
Based on these findings it can be concluded that treatment with the compound of formula (I) is effective both as a prophylactic and therapeutic and has an anti-allodynic effect in paclitaxel induced neuropathic pain.

S1P1 receptor = S1P1 receptor (Homo sapiens, UniProt P21453); assay: S1P1 receptor degradation (activity v/s degradation margin); type: cell-based
S1P1 receptor, sequence (P21453 whole entry): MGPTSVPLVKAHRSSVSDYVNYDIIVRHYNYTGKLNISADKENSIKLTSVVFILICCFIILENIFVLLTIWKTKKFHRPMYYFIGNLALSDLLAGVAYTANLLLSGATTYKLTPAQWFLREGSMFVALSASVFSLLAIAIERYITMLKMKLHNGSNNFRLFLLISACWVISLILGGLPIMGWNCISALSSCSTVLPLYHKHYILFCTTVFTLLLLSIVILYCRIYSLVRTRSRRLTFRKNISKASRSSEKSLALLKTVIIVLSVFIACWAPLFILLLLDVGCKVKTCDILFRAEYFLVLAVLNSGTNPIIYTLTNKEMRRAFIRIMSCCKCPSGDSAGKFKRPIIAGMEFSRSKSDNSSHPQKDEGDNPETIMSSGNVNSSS

DSS-induced colitis = assay: DSS-induced ulcerative colitis model; type: in vivo, Balb/C Mice
Experimental: The effect of a compound of formula (I) was assessed in an animal model of Ulcerative colitis. 24 Balb/C Mice were divided into […]; control and treatment (n=6). Acute colitis was induced in all groups by adding 2.5% w/v Dextran Sulphate Sodium (DSS) treatment in drinking water for 5-7 days. A compound of Formula I was administered at dose of 3 mg/kg body weight by oral route as a repeated dose for 3 or 6 days, consecutively. […] During day 6 these observations were reduced to 16.66% in control and 0.00% in a compound of Formula I group.
The mean colon lengths were 9.67 cm, 9.88 cm, 11.20 cm and 13.02 cm in day 3 control group, day 6 control group, day 3 a compound of Formula I treated group and day 6 a compound of Formula I treated group respectively. […] The severity of presence of haemorrhages with desquamated cells seen in lumen of colon of control animals was reduced in a compound of Formula (I) treated animals.

CCCOc1ccc(-c2nc(-c3ccc4oc(C(N)(CO)CO)cc4c3)no2)cc1Cl [compound of formula (I)]
concentration at 3 weeks ([1]; 2 g daily of 3% ww formulation, 2 g daily topical 3% ww formulation for 3 weeks): ~2.5 ng/mL | concentration at 21 days ([1]; topical, 1 g of 3% by weight formulation per 150 cm^2, 1 g of 3% by weight formulation per 150 cm2 twice daily for 21 days): ~2.2 ng/mL | concentration at 1 week ([1]; topical, 2 g of 3% or 6% by weight formulation (60 mg or 120 mg) over the joint area for one week): ≤ 2.5 ng/mL | proinflammatory cytokines (TNFα, IL1β and IL6) [2]: significant reduction of proinflammatory cytokines | lymphopenia (EAE): lymphopenia was less; also recorded: short-term and quickly reversed | body temperature and organ histopathology [3]: positive impact on the body temperature and organ histopathology | neuropathic pain, therapeutic treatment ([4]; 3 mg/kg/day oral after establishment of pain, maximum effect after 5th daily dose): reversal of neuropathic pain in time dependent manner | development of neuropathic pain, prophylactic treatment ([4]; 0.3, 1 and 3 mg/kg/day oral, maximum effect at 3 mg/kg/day): inhibited the development of paclitaxel induced neuropathic pain dose dependently | reduction of day 16 score ([4]; preventive model, 1 and 3 mg/kg dose levels, p<0.001): > 60% | anti-allodynic effect after withdrawal of treatment on day 15 ([4]; until 7 days post last drug treatment (day 22)): did not cause any reversal of the drug's anti-allodynic effect | activity v/s degradation margin (S1P1 receptor): greater than 100 | DSS-induced colitis, overall (DSS-induced colitis; 3 mg/kg oral daily): improvement of DSS-induced colitis | mean colon length (DSS-induced colitis; day 3, 3 mg/kg oral): 11.20 cm | gross pathological observations (emaciated, anal area soiled with blood) (DSS-induced colitis; day 6, 3 mg/kg oral): 0.00% | mean colon length (DSS-induced colitis; day 6, 3 mg/kg oral): 13.02 cm | increase in mucus secreting goblet cells (DSS-induced colitis; histopathology day 6): moderate ( 4/6 animals) to minimal (⅙ animals) increase | infiltration of MNC (DSS-induced colitis; histopathology day 6): minimal in 2/6 animals and mild in ⅙ animals | thickness of mucosa (DSS-induced colitis; histopathology day 6, compared to control): markedly reduced | incidence of increase in thickness of mucosa (DSS-induced colitis; histopathology of colon): mild in 3/6 animals and minimal in 2/6 animals | number of mucus secreting goblet cells (DSS-induced colitis; histopathology of colon): increased moderately ( 4/6) | severity of haemorrhages with desquamated cells in lumen of colon (DSS-induced colitis; histopathology of colon): reduced
